Results taken from patent publication US9493446B2, “Orexin receptor antagonists which are [ortho bi-(hetero-)aryl]-[2-(meta bi-(hetero-)aryl)-pyrrolidin-1-yl]-methanone derivatives” (Actelion Pharmaceuticals Ltd, priority 2012, dated 2016).
pIC50: −log10 of the molar value. Read-outs that look alike come from different tables or passages of the source.

Experiments:
orexin-1 = orexin-1 (Homo sapiens (Human), UniProt O43613); test: Intracellular calcium measurement (FLIPR), CHO cells expressing human orexin-1 receptor, 3 nM orexin-A; format: cell-based; details: read-out: IC50 OX1
Sequence of orexin-1 (O43613 whole entry): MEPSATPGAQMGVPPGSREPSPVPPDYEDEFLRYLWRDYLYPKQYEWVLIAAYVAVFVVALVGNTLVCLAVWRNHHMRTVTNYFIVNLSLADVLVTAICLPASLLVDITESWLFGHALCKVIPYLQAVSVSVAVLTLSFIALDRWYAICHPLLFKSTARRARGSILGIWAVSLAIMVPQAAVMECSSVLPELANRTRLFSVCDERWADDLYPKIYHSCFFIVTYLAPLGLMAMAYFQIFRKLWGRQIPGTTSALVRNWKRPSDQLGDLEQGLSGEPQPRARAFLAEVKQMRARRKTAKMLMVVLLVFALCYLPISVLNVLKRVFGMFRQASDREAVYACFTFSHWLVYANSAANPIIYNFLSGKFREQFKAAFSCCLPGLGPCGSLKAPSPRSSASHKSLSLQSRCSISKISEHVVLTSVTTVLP
In short: (§1)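 Fluo-4 AM-loaded CHO cells; antagonist preincubation 120 min, then 3 nM orexin-A (final) in HBSS/0.1% BSA/20 mM HEPES. FLIPR read at 1 s intervals; peak height vs. agonist-plus-vehicle control → IC50.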

human orexin-2 receptor = human orexin-2 receptor (Homo sapiens (Human), UniProt O43614); test: Intracellular calcium measurement (FLIPR), CHO cells expressing human orexin-2 receptor, 3 nM orexin-A; format: cell-based; details: read-out: IC50 OX2
Sequence of human orexin-2 receptor (O43614 whole entry): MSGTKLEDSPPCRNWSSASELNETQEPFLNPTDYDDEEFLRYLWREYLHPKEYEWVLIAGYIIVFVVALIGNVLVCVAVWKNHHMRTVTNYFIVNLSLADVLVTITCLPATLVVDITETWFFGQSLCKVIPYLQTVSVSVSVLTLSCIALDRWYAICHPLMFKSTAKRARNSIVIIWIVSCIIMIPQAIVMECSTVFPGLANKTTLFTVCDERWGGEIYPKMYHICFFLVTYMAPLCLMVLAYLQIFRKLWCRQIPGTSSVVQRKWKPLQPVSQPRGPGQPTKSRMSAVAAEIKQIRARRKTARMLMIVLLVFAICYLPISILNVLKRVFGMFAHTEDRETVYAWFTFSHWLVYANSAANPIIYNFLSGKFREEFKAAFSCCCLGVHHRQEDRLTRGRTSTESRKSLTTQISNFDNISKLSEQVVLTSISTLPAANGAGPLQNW
In short: as §1

[1] = CHO cells expressing human orexin-1 receptor, FLIPR, 3 nM orexin-A, geometric mean if determined several times
[2] = CHO cells expressing human orexin-2 receptor, FLIPR, 3 nM orexin-A, geometric mean if determined several times

Compound | pIC50 (orexin-1; [1]) | pIC50 (human orexin-2 receptor; [2]) | pIC50 (orexin-1) | pIC50 (human orexin-2 receptor)
Cc1ccc(-n2nccn2)c(C(=O)N2CCC[C@H]2c2nc(-c3ccc4c(c3)OCO4)no2)c1 [compound 22, [(S)-2-(3-Benzo[1,3]dioxol-5-yl-[1,2,4]oxadiazol-5-yl)-pyrrolidin-1-yl]-(5-methyl-2-[1,2,3]triazol-2-yl-phenyl)-methanone] | 6.03 | 6.49 | – | –
Cc1cc(C)cc(-c2nnc([C@@H]3CCCN3C(=O)c3cc(C)ccc3-n3nccn3)[nH]2)c1 [Example 511, {(S)-2-[5-(3,5-Dimethyl-phenyl)-4H-[1,2,4]triazol-3-yl]-pyrrolidin-1-yl}-(5-methyl-2-[1,2,3]triazol-2-yl-phenyl)-methanone] | 6.19 | 6.95 | – | –
COc1cc(C(=O)N2CCC[C@H]2c2nc(-c3cccc(F)c3C)no2)c(-n2nccn2)cc1Cl [compound 295] | 7.11 | 8.52 | – | –
Cc1cccc(-c2nc([C@@H]3CCCN3C(=O)c3cc(Cl)ccc3-n3nccn3)no2)c1C [compound 394] | – | 7.92 | 6.87 | –
Cc1c(F)cccc1-c1noc([C@@H]2CCCN2C(=O)c2cc(Cl)ccc2-n2nccn2)n1 [compound 245] | – | 7.68 | 6.58 | –
Cc1ccc(-n2nccn2)c(C(=O)N2CCC[C@H]2c2ncc(-c3ccccc3)o2)c1 [Example 461, (5-Methyl-2-[1,2,3]triazol-2-yl-phenyl)-[(S)-2-(5-phenyl-oxazol-2-yl)-pyrrolidin-1-yl]-methanone] | 6.94 | 6.33 | – | –
COc1cc(C(=O)N2CCC[C@H]2c2nnc(-c3ccccc3OC)[nH]2)c(-n2nccn2)cc1Cl [compound 467] | 7.20 | 8.00 | – | –
COc1cc(C(=O)N2CCC[C@H]2c2nc(-c3cccc(Cl)c3C)no2)c(-n2nccn2)cc1C [compound 103] | 7.52 | 8.70 | – | –
Cc1ccc(-n2nccn2)c(C(=O)N2CCC[C@H]2c2cc(-c3cccc(Cl)c3C)no2)c1 [compound 424] | 8.10 | 8.40 | – | –
O=C(c1ccoc1)N1CCC[C@H]1c1nc(-c2cccc(Cl)c2)no1 [Ref 5] | < 5.07 | < 5.00 | – | –
Cc1cc(C)c(-n2nccn2)c(C(=O)N2CCC[C@H]2c2nc(-c3cccc(Cl)c3C)no2)c1 [compound 119] | 6.73 | – | – | 7.62
Cc1cc(C(=O)N2CCC[C@H]2c2nnc(-c3cccc(Cl)c3C)o2)c(-n2nccn2)cc1C [compound 447] | 7.52 | 8.30 | – | –
Cc1onc(-c2ccccc2Cl)c1C(=O)N1CCC[C@H]1c1nc(-c2ccccc2OC(F)(F)F)no1 [Ref 10] | 6.11 | 5.66 | – | –
Cc1ccc(-n2nccn2)c(C(=O)N2CCC[C@H]2c2nc(-c3cccc(F)c3)no2)c1 [compound 14, {(S)-2-[3-(3-Fluoro-phenyl)-[1,2,4]oxadiazol-5-yl]-pyrrolidin-1-yl}-(5-methyl-2-[1,2,3]triazol-2-yl-phenyl)-methanone] | 6.41 | 6.53 | – | –
Cc1c(Cl)cccc1-c1noc([C@@H]2CCCN2C(=O)c2cc(F)ccc2-n2nccn2)n1 [compound 104] | 5.99 | – | – | 7.42
Cc1ccc(-n2nccn2)c(C(=O)N2CCC[C@H]2c2nc(-c3ccccc3)no2)c1 [Example 1, (5-Methyl-2-[1,2,3]triazol-2-yl-phenyl)-[(S)-2-(3-phenyl-[1,2,4]oxadiazol-5-yl)-pyrrolidin-1-yl]-methanone] | 6.43 | 7.40 | – | –
COc1cc(C(=O)N2CCC[C@H]2c2nnc(-c3ccccc3OC(F)(F)F)[nH]2)c(-n2nccn2)cc1Cl [compound 509] | 7.66 | 8.52 | – | –
CCOc1c(F)cccc1-c1nc([C@@H]2CCCN2C(=O)c2cc(Cl)ccc2-n2nccn2)no1 [compound 327] | 7.42 | – | – | 8.40
Cc1c(Cl)cccc1-c1noc([C@@H]2CCCN2C(=O)c2ccc(F)cc2-n2nccn2)n1 [compound 112] | 6.08 | – | – | 6.92

Continued, in another order:

pIC50 (orexin-1; [1]) | pIC50 (human orexin-2 receptor; [2]) | Compound | pIC50 (orexin-1) | pIC50 (human orexin-2 receptor)
6.58 | 7.60 | COc1c(F)cccc1-c1noc([C@@H]2CCCN2C(=O)c2ccccc2-n2nccn2)n1 [compound 193, {(S)-2-[3-(3-Fluoro-2-methoxy-phenyl)-[1,2,4]oxadiazol-5-yl]-pyrrolidin-1-yl}-(2-[1,2,3]triazol-2-yl-phenyl)-methanone] | – | –
7.57 | 8.52 | COc1c(Cl)cccc1-c1nnc([C@@H]2CCCN2C(=O)c2cc(C)c(C)cc2-n2nccn2)[nH]1 [compound 492, {(S)-2-[5-(3-Chloro-2-methoxy-phenyl)-4H-[1,2,4]triazol-3-yl]-pyrrolidin-1-yl}-(4,5-dimethyl-2-[1,2,3]triazol-2-yl-phenyl)-methanone] | – | –
6.79 | 7.52 | COc1ccc(C)c(-c2nc([C@@H]3CCCN3C(=O)c3ccc(C)cc3-n3nccn3)no2)c1 [compound 413, {(S)-2-[5-(5-Methoxy-2-methyl-phenyl)-[1,2,4]oxadiazol-3-yl]-pyrrolidin-1-yl}-(4-methyl-2-[1,2,3]triazol-2-yl-phenyl)-methanone] | – | –
7.17 | 7.35 | Cc1nc(C(=O)N2CCC[C@H]2c2nnc(-c3ccccc3OC(F)(F)F)o2)c(-c2cccc(F)c2)s1 [compound 443, [5-(3-Fluoro-phenyl)-2-methyl-thiazol-4-yl]-{(S)-2-[5-(2-trifluoromethoxy-phenyl)-[1,3,4]oxadiazol-2-yl]-pyrrolidin-1-yl}-methanone] | – | –
5.85 | 6.44 | Cc1ccc(-n2nccn2)c(C(=O)N2CCC[C@H]2c2nc(-c3ccc(C)c(C)n3)no2)c1 [compound 63, {(S)-2-[3-(5,6-Dimethyl-pyridin-2-yl)-[1,2,4]oxadiazol-5-yl]-pyrrolidin-1-yl}-(5-methyl-2-[1,2,3]triazol-2-yl-phenyl)-methanone] | – | –
6.15 | 7.35 | COc1cccc(-c2cnc([C@@H]3CCCN3C(=O)c3cc(C)ccc3-n3nccn3)[nH]2)c1 [compound 524, {(S)-2-[5-(3-Methoxy-phenyl)-1H-imidazol-2-yl]-pyrrolidin-1-yl}-(5-methyl-2-[1,2,3]triazol-2-yl-phenyl)-methanone] | – | –
6.79 | 7.13 | Cc1cccc(-c2nc([C@@H]3CCCN3C(=O)c3cc(C)ccc3-n3nccn3)no2)c1 [compound 305, (5-Methyl-2-[1,2,3]triazol-2-yl-phenyl)-[(S)-2-(5-m-tolyl-[1,2,4]oxadiazol-3-yl)-pyrrolidin-1-yl]-methanone] | – | –
6.05 | 7.24 | COc1cccc(F)c1-c1noc([C@@H]2CCCN2C(=O)c2cc(C)ccc2-n2nccn2)n1 [compound 72, {(S)-2-[3-(2-Fluoro-6-methoxy-phenyl)-[1,2,4]oxadiazol-5-yl]-pyrrolidin-1-yl}-(5-methyl-2-[1,2,3]triazol-2-yl-phenyl)-methanone] | – | –
6.54 | 7.10 | O=C(c1cccc(F)c1-n1nccn1)N1CCC[C@H]1c1nc(-c2ccccc2OC(F)(F)F)no1 [compound 165, (3-Fluoro-2-[1,2,3]triazol-2-yl-phenyl)-{(S)-2-[3-(2-trifluoromethoxy-phenyl)-[1,2,4]oxadiazol-5-yl]-pyrrolidin-1-yl}-methanone] | – | –
6.49 | 7.92 | COc1c(F)cccc1-c1nc([C@@H]2CCCN2C(=O)c2ccccc2-n2nccn2)no1 [compound 334, {(S)-2-[5-(3-Fluoro-2-methoxy-phenyl)-[1,2,4]oxadiazol-3-yl]-pyrrolidin-1-yl}-(2-[1,2,3]triazol-2-yl-phenyl)-methanone] | – | –
8.70 | 9.00 | CCOc1ccccc1-c1cnc([C@@H]2CCCN2C(=O)c2ccc(C)cc2-n2nccn2)[nH]1 [compound 518, {(S)-2-[5-(2-Ethoxy-phenyl)-1H-imidazol-2-yl]-pyrrolidin-1-yl}-(4-methyl-2-[1,2,3]triazol-2-yl-phenyl)-methanone] | – | –
5.74 | 5.85 | Cc1ccc(-n2nccn2)c(C(=O)N2CCC[C@H]2c2nnc(-c3ccccc3)o2)c1 [compound 439, (5-Methyl-2-[1,2,3]triazol-2-yl-phenyl)-[(S)-2-(5-phenyl-[1,3,4]oxadiazol-2-yl)-pyrrolidin-1-yl]-methanone] | – | –
6.83 | 6.60 | COc1c(F)cccc1-c1noc([C@@H]2CCCN2C(=O)c2ccc(C)c(C)c2-n2nccn2)n1 [compound 272, (3,4-Dimethyl-2-[1,2,3]triazol-2-yl-phenyl)-{(S)-2-[3-(3-fluoro-2-methoxy-phenyl)-[1,2,4]oxadiazol-5-yl]-pyrrolidin-1-yl}-methanone] | – | –
7.20 | 8.10 | Cc1ccc(-n2nccn2)c(C(=O)N2CCC[C@H]2c2nc(-c3cc(C)ccc3C)no2)c1 [compound 84, {(S)-2-[3-(2,5-Dimethyl-phenyl)-[1,2,4]oxadiazol-5-yl]-pyrrolidin-1-yl}-(5-methyl-2-[1,2,3]triazol-2-yl-phenyl)-methanone] | – | –
7.16 | 6.72 | Cc1ccc(C(=O)N2CCC[C@H]2c2nc(-c3ccccc3OC(F)(F)F)no2)c(-n2nccn2)c1C [compound 271, (3,4-Dimethyl-2-[1,2,3]triazol-2-yl-phenyl)-{(S)-2-[3-(2-trifluoromethoxy-phenyl)-[1,2,4]oxadiazol-5-yl]-pyrrolidin-1-yl}-methanone] | – | –
6.18 | 7.04 | Cc1ccc(-n2nccn2)c(C(=O)N2CCC[C@H]2c2nc(-c3cccc4[nH]ccc34)no2)c1 [compound 39, {(S)-2-[3-(1H-Indol-4-yl)-[1,2,4]oxadiazol-5-yl]-pyrrolidin-1-yl}-(5-methyl-2-[1,2,3]triazol-2-yl-phenyl)-methanone] | – | –
6.60 | 7.41 | Cc1ccc(-n2nccn2)c(C(=O)N2CCC[C@H]2c2nc(-c3ccccc3C(F)(F)F)no2)c1 [compound 29, (5-Methyl-2-[1,2,3]triazol-2-yl-phenyl)-{(S)-2-[3-(2-trifluoromethyl-phenyl)-[1,2,4]oxadiazol-5-yl]-pyrrolidin-1-yl}-methanone] | – | –
